# PMC8763936 (Investigational New Drugs, 2021)
# Several values for one entry are separate records, joined by “and”; a condition that tells them apart may be missing. Equal values may be shown once. Marks after values point to notes of the source that are not given here.
# Assays:
# CYP2D6 = CYP2D6 (Homo sapiens, UniProt P10635); test: Metabolism by recombinantly expressed CYP enzymes
# [1] = tested on: CYPs 1A2, 2B6, 2C19, and 3A4; test: Induction of CYP enzymes in human hepatocytes, CYPs tested taken together; type: in vitro ADME
# CYP1A1 = target: T1, CYP1A1 (Homo sapiens, UniProt P04798); test: Metabolism by recombinantly expressed CYP enzymes; set-up: Entrectinib Metabolism to M5: key to the marks not given beside the values
# T1 sequence (P04798 1-512): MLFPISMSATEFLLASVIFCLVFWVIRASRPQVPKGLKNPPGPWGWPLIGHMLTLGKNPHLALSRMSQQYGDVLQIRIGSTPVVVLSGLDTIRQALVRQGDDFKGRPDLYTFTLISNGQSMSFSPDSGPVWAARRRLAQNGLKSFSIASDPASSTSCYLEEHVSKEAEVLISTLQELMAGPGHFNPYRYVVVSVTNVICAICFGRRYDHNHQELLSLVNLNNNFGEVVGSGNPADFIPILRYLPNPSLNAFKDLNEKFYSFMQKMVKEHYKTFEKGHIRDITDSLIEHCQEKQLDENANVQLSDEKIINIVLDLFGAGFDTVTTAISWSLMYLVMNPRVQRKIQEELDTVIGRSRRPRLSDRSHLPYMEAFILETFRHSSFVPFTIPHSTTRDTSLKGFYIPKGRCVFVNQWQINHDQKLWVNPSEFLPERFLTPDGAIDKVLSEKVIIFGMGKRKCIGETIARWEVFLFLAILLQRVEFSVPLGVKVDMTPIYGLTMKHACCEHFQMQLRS
# [2] = Intrinsic clearance in long-term micropatterned co-cultured human hepatocytes; type: in vitro ADME
# P-gp = P-gp (Homo sapiens, UniProt P08183); test: In vitro P-gp substrate assay (Caco-2 and MDCKII-MDR1 cells); type: in vitro ADME; set-up: expressed in transfected cells; host or cells: MDCKII-MDR1 cells; also Caco-2 cells
# Sequence of P-gp (P08183 whole entry): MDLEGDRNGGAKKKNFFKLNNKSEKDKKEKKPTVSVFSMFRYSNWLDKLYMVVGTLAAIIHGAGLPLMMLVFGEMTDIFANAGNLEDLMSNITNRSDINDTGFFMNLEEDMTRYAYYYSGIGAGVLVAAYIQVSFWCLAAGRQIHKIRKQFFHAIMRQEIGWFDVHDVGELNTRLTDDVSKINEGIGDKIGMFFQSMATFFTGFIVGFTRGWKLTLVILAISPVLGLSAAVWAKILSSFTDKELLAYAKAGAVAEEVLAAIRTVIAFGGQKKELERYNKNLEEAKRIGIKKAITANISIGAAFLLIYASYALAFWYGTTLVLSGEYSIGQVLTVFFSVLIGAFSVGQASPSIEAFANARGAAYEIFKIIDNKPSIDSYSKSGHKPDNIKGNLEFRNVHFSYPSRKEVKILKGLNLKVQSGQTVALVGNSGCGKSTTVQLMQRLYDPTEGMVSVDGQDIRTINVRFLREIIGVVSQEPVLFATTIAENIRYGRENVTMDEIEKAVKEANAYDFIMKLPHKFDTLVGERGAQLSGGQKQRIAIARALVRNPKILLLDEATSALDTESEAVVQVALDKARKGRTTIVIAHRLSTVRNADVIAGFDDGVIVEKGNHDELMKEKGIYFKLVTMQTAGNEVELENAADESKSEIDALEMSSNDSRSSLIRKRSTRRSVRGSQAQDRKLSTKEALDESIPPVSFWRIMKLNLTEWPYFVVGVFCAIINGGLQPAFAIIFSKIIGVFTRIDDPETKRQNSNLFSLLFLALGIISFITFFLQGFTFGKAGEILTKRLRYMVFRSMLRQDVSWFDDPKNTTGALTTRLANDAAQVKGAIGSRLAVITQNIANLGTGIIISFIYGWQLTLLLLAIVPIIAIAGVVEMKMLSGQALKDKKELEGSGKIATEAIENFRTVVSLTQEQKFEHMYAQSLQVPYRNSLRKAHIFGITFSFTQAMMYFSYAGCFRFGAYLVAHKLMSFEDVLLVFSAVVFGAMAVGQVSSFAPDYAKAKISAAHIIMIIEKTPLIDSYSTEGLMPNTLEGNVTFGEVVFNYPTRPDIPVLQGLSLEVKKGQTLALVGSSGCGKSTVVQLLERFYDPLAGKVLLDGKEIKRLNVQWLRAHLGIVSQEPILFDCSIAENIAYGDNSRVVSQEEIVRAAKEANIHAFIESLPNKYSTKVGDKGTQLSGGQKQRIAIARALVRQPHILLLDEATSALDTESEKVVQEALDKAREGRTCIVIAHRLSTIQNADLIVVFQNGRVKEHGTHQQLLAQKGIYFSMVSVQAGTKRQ
# MDR1 (P-gp) = target: T2, MDR1 (P-gp) (Homo sapiens, UniProt P08183); test: In vitro P-gp inhibition; type: in vitro ADME
# T2 construct: expressed in transfected cells
# T2 sequence (P08183 whole entry): as above
# [3] = set-up: method as in Roche data on file; details: human plasma; ref Roche data on file; cited from earlier work
# CYP1A2 [4] = target: T3, CYP1A2 (Homo sapiens, UniProt P05177); test: Metabolism by recombinantly expressed CYP enzymes
# T3 sequence (P05177 1-516): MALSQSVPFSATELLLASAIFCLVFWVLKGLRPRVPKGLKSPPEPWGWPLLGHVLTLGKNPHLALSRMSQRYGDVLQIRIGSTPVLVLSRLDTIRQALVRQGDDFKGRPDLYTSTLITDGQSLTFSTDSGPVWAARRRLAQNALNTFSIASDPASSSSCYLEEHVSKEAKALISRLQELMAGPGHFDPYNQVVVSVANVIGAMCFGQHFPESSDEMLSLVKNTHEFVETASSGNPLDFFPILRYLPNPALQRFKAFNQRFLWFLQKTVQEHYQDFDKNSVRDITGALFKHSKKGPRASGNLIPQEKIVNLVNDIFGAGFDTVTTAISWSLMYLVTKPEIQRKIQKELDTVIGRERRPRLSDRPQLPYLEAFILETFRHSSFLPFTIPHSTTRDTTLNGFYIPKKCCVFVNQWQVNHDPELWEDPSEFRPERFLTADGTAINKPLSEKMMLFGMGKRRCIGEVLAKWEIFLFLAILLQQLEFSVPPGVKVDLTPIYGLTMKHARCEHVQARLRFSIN
# CYP2C8 = target: T4, CYP2C8 (Homo sapiens, UniProt P10632); test: In vitro CYP inhibition in human liver microsomes; type: in vitro ADME; set-up: was investigated in human liver microsomes; from tissue; host or cells: pooled human liver microsomes; details: for IC50: human liver microsomes
# T4 sequence (P10632 1-490): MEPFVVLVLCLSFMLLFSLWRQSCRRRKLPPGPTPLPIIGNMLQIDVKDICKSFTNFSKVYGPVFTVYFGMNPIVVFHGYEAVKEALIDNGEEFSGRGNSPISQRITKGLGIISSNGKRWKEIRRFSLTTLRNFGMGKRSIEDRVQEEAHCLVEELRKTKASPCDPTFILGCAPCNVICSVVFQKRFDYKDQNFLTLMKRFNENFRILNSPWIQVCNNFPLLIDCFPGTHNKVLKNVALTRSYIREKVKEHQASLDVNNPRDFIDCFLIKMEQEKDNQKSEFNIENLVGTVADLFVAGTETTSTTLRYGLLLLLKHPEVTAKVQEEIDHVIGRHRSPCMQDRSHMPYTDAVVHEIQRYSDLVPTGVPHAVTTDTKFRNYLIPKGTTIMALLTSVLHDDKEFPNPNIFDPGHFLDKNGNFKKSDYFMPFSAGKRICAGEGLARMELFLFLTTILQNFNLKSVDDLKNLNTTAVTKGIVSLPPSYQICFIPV
# CYP2C19 = test: Induction of CYP enzymes in human hepatocytes; details: percent of positive control
# Protocol: In vitro induction of CYP mRNA (CYPs 1A2, 2C8, 2C9 and 3A4) or enzyme activity (CYPs 1A2, 2C19 and 3A4) was assessed in human hepatocytes.
# [5] = Study 1 Cohort 1: single dose entrectinib alone or with itraconazole, plasma pharmacokinetics; details: for M5/Entrectinib ratio, AUCinf / M5/Entrectinib ratio, Cmax: arithmetic mean (CV)
# Protocol: All doses of study medication were administered at the study center.
# CYP2B6 = test: Induction of CYP enzymes in human hepatocytes; type: in vitro ADME; details: percent of positive control
# CYP1A2 [6] = target: T3, CYP1A2; test: In vitro CYP inhibition in human liver microsomes; type: in vitro ADME; set-up: purchased Corning-Gentest
# [7] = Entrectinib 100 mg alone, geometric mean (geometric CV)
# [8] = Entrectinib 100 mg with itraconazole 200 mg QD, geometric mean (geometric CV)
# [9] = Entrectinib 100 mg with itraconazole
# Sequence of CYP2D6 (P10635 whole entry): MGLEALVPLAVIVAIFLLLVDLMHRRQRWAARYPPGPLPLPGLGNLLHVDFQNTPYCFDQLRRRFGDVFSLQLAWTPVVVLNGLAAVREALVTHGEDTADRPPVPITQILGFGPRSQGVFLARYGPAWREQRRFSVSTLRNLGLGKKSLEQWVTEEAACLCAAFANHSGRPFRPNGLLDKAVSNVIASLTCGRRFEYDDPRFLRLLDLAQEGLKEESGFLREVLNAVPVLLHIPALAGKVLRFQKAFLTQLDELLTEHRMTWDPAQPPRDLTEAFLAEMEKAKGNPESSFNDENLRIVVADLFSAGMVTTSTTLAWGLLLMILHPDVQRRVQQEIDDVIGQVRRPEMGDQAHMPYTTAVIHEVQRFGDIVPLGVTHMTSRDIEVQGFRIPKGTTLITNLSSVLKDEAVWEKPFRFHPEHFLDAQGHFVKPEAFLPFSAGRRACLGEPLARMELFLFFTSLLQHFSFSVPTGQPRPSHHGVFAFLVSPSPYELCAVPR
structure (smiles),measurement,setting,value
O=C(Nc1n[nH]c2ccc(Cc3cc(F)cc(F)c3)cc12)c1ccc(N2CCNCC2)cc1NC1CCOCC1 [M5],M5 Metabolism,CYP2D6,-
same,impact on the activities of the CYPs tested,[1],no significant impact
same,M5 Metabolism,CYP1A1,+
same,intrinsic clearance relative to entrectinib,[2],approximately twofold lower intrinsic clearance than entrectinib
same,P-gp substrate status,P-gp,substrate
same,IC50,MDR1 (P-gp),10.1 µM and 10 µM
same,unbound fraction,[3],< 1%
same,M5 Metabolism,CYP1A2 [4],-
same,free Cmax lower than the CYP2C8 IC50,CYP2C8; free Cmax 0.0134 μM vs IC50 about 4.9 μM,> 300 fold
same,IC50,CYP2C8,~4.9 µM and 4.9 µM
same,Relative Effectiveness ± SD Based on CYP Activity,CYP2C19; M5 0.5 µM,-1.21% ±0.94
same,Relative Effectiveness ± SD Based on CYP Activity,CYP2C19; M5 2.5 µM,-3.22% ±3.41
same,Relative Effectiveness ± SD Based on CYP Activity,"CYP2C19; M5 10 µM, n=2",-9.87% ^a
same,AUCinf,"[5]; Entrectinib 100 mg alone, single dose, healthy subjects, fasted, geometric mean (geometric CV)",1710 (30%) nM•h
same,"M5/Entrectinib ratio, AUCinf",[5]; Entrectinib 100 mg alone,0.288 (28%)
same,"M5/Entrectinib ratio, Cmax",[5]; Entrectinib 100 mg alone,0.151 (26%)
same,Cmax,[5]; [7],52.3 nM
same,t1/2,[5]; [7],41 h and 40.8 (22%) h
same,Tmax,"[5]; Entrectinib 100 mg alone, median (minimum, maximum)","5.0 (3.0, 5.0) h"
same,AUCinf,[5]; [8],4310 (30%) nM•h
same,Cmax,[5]; [8],31.5 nM
same,t1/2,[5]; [8],88.0 (32%) h
same,Tmax,"[5]; Entrectinib 100 mg with itraconazole 200 mg QD, median (minimum, maximum)","6.0 (5.0, 48.0) h"
same,"M5/Entrectinib ratio, AUCinf",[5]; [9],0.124 (29%)
same,"M5/Entrectinib ratio, Cmax",[5]; [9],0.0538 (34%)
same,increase in AUCinf,[5]; coadministration of itraconazole with entrectinib,approximately 2.5 fold
same,M5 exposure as share of entrectinib exposure (mean M5/entrectinib ratio for AUCinf),[5]; entrectinib 100 mg alone,approximately 29%
same,M5 exposure as share of entrectinib exposure (mean M5/entrectinib ratio for AUCinf),[5]; entrectinib 100 mg coadministered with itraconazole,12%
same,Relative Effectiveness ± SD Based on CYP Activity,CYP2B6; M5 0.5 µM,2.98% ±2.91
same,Relative Effectiveness ± SD Based on CYP mRNA,CYP2B6; M5 0.5 µM,4.22% ±4.37
same,Relative Effectiveness ± SD Based on CYP Activity,CYP2B6; M5 2.5 µM,9.02% ±8.75
same,Relative Effectiveness ± SD Based on CYP mRNA,CYP2B6; M5 2.5 µM,19.3% ±11.4
same,Relative Effectiveness ± SD Based on CYP Activity,CYP2B6; M5 10 µM,9.56% ±8.52
same,Relative Effectiveness ± SD Based on CYP mRNA,CYP2B6; M5 10 µM,26.5% ±10.7
same,IC50,CYP1A2 [6],> 10 µM
CN1CCN(c2ccc(C(=O)Nc3n[nH]c4ccc(Cc5cc(F)cc(F)c5)cc34)c(NC3CCOCC3)c2)CC1 [Entrectinib],Entrectinib Metabolism to M5,CYP2D6,+
same,Entrectinib Metabolism to other Products,CYP2D6,-
same,Entrectinib Metabolism to M5,CYP1A1,++
same,Entrectinib Metabolism to other Products,CYP1A1,+
same,IC50,MDR1 (P-gp),1.33 µM and 1.3 µM
same,Entrectinib Metabolism to M5,CYP1A2 [4],-
same,Entrectinib Metabolism to other Products,CYP1A2 [4],-
same,IC50,CYP2C8,> 10 µM
same,t1/2,[5]; [7],20.2 (17%) h
same,t1/2,[5]; [8],49.8 (22%) h
same,increase of AUCinf,[5]; entrectinib coadministered with itraconazole vs alone,504%
same,Tmax,"[5]; human, in vivo",5 h
same,AUC(0-inf),"[5]; human, in vivo, 100 mg",6.19 µM·h
same,Cmax,"[5]; human, in vivo, 100 mg",358 nM
same,Tmax,"[5]; human, in vivo, 100 mg",2 h
same,half-life,"[5]; human, in vivo, 100 mg, t1/2, Entrectinib 100 mg alone, geometric mean (geometric CV)",20 h
same,half-life,"[5]; human, in vivo, t1/2, Entrectinib 100 mg with itraconazole 200 mg QD, geometric mean (geometric CV)",50 h
same,median Tmax later,[5]; with itraconazole vs entrectinib alone,approximately 3 h
same,IC50,CYP1A2 [6],> 10 µM
